Drawing on patent US8354419B2, “Benzimidazole analogues for the treatment or prevention of flavivirus infections” (Vertex Pharmaceuticals Incorporated, priority 2009, dated 2013), this text covers EC50 for 26 molecules.

Structures are written as SMILES. Bounds are passed on as bounds.

The assay has as its system HCV (Ib) RNA replication. The assay can be described thus: Cell-based luciferase reporter HCV (1b) RNA replication assay (replicon cell lines Huh-7 5.2 and ET). Also noted: species or system Hepatitis C virus. The following applies: Hepatitis C virus, Huh-7, 96 h, HCV 1b genotype replicon, luciferase readout, 4 days incubation; read-out: EC50_1b. An excerpt: Cell-Based Luciferase Reporter HCV (Ib) RNA Replication Assay Cell Culture
Replicon cell lines Huh-7, 5.2 and ET which are derived from the Huh-7 hepatocarcinoma cell line are maintained in culture as generally described in Krieger, N; Lohmann, V; Bartenschlager, R. Enhancement of hepatitis C virus RNA replication by cell culture-adaptive mutations. J. Virol. 2001, 75, 4614-4624. The Huh-7, 5.2 cells contain the highly cell culture-adapted replicon I389luc-ubi-neo/NS3-3′/5.1 construct that carries, in addition to the neomycin gene, an integrated copy to the firefly luciferase gene (Krieger, N; Lohmann, V; Bartenschlager, R. Enhancement of hepatitis C virus RNA replication by cell culture-adaptive mutations. J. Virol. 2001, 75, 4614-4624). This cell line allows measurement of HCV RNA replication and translation by measuring luciferase activity. It has been previously shown that the luciferase activity tightly follows the replicon RNA level in these cells (Krieger, N; Lohmann, V; Bartenschlager, R. Enhancement of hepatitis C virus RNA replication by cell culture-adaptive mutations. J. Virol. 2001, 75, 4614-4624). The Huh-7, ET cell line has the same features as those mentioned for Huh-7, 5.2 cell line, except that ET cells are more robust and contain an adaptative mutation in the HCV NS4B gene instead of NS5A. Both cell lines are maintained in cultures at a sub-confluent level (<85%) as the level of replicon RNA is highest in actively proliferating cells. The culture media used for cell passaging consist of DMEM (Gibco BRL Laboratories, Mississauga, ON, Canada) supplemented with 10% foetal bovine serum with 1% penicillin/streptomycin, 1% glutamine, 1% sodium pyruvate, 1% non-essential amino acids, and 180 ug/ml of G418 final concentration. Cells are incubated at 37° C., in an atmosphere of 5% CO2 and passaged twice a week to maintain sub-confluence.
Approximately 3000 viable Huh-7, 5.2 or ET cells (100 μl) are plated per well in a white opaque 96-well microtiter plate. The cell culture media used for the assay is the same as described above except that it contains no G418 and no phenol red. After an incubation period of 3-4 hours at 37° C. in a 5% CO2 incubator, compounds (100 μl) are added at various concentrations. Cells are then further incubated for 4 days at 37° C. in a 5% CO2 incubator. Thereafter, the culture media is removed and cells are lysed by the addition of 95 μL of the luciferase buffer (luciferin substrate in buffered detergent). Cell lysates are incubated at room temperature and protected from direct light for at least 10 minutes. Plates are read for luciferase counts using a luminometer (Wallac MicroBeta Trilux, Perkin ELmer™, MA, USA).
The 50% inhibitory concentrations (IC50s) for inhibitory effect are determined from dose response curves using eleven concentrations per compound in duplicate. Curves are fitted to data points using nonlinear regression analysis, and IC50s are interpolated from the resulting curve using GraphPad Prism software, version 2.0 (GraphPad Software Inc., San Diego, Calif., USA).
Table 2 show compounds representative of the present invention and the EC50 values against the HCV 1b genotype.
(In general: Reporter assays use an easily measured gene product as a stand-in for the process of interest.)
`COC(=O)N[C@@H](C)C(=O)N1CCC[C@H]1c1nc2cc(C#Cc3ccc4[nH]c([C@@H]5CCCN5C(=O)[C@@H](NC(=O)OC)C(C)(C)C)nc4c3)ccc2[nH]1` [Compound 54]: the EC50 is no more than 5 nM.

In the case of `COC(=O)N[C@H](C(=O)N1CCC[C@H]1c1nc2cc(-c3ccc(-c4ccc5nc([C@@H]6CCCN6C(=O)[C@@H](NC(=O)OC)C(C)C)[nH]c5c4)cc3C(F)(F)F)ccc2[nH]1)C(C)C` [Compound 177], the EC50 is no more than 5 nM.

Consider `CCC(CC)CN1CCC[C@H]1c1nc2cc(C#Cc3ccc4[nH]c([C@@H]5CCCN5CC(CC)CC)nc4c3)ccc2[nH]1` [Compound 140], for which the EC50 lay within 5 to 5000 nM.

Turning to `COC(=O)N[C@@H](C)C(=O)N1CCC[C@H]1c1nc2cc(C#Cc3ccc4[nH]c([C@@H]5CCCN5C(=O)[C@H]5CCCO5)nc4c3)ccc2[nH]1` [Compound 56], the EC50 is no more than 5 nM.

For the molecule `COC(=O)N[C@H](C(=O)N1[C@H](c2nc3cc(-c4ccc(-c5ccc6nc([C@@H]7CCC(C)(C)N7C(=O)[C@@H](NC(=O)OC)C(C)C)[nH]c6c5)cc4)ccc3[nH]2)CCC1(C)C)C(C)C` [Compound 311], the EC50 is no more than 5 nM.

For `COC(=O)N(C)[C@H](C(=O)N1CCC[C@H]1c1nc2cc(CCc3ccc4nc([C@@H]5CCCN5C(=O)[C@H](C(C)C)N(C)C(=O)OC)[nH]c4c3)ccc2[nH]1)C(C)C` [Compound 72], the EC50 was no more than 5 nM.

Turning to `COC(=O)N[C@H](C(=O)N1[C@@H](C)CC[C@H]1c1nc2cc(-c3cc(F)c(-c4ccc5[nH]c([C@@H]6CC[C@H](C)N6C(=O)[C@@H](NC(=O)OC)C(C)C)nc5c4)cc3F)ccc2[nH]1)C(C)C` [Compound 314], the EC50 is no more than 5 nM.

As for `COC(=O)N[C@H](C(=O)N1CCC[C@H]1c1nc2cc(F)c(-c3ccc(-c4cc5[nH]c([C@@H]6CCCN6C(=O)[C@@H](NC(=O)OC)C(C)C)nc5cc4F)cc3)cc2[nH]1)C(C)C` [Compound 27, Dimethyl (2S,2′S)-1,1′-((2S,2′S)-2,2′-(5,5′-(1,4-phenylene)bis(6-fluoro-1H-benzo[d]imidazole-5,2-diyl))bis(pyrrolidine-2,1-diyl))bis(3-methyl-1-oxobutane-2,1-diyl)dicarbamate], the EC50 is no more than 5 nM.

For the molecule `O=C([C@H]1C[C@@H](O)CN1)N1CCC[C@H]1c1nc2cc(C#Cc3ccc4[nH]c([C@@H]5CCCN5C(=O)[C@H]5C[C@@H](O)CN5)nc4c3)ccc2[nH]1` [Compound 99], the EC50 lay in the range of 5 to 5000 nM.

For `COC(=O)N[C@H](C(=O)N1CCC[C@H]1c1nc2cc(-c3ccc(-c4ccc5[nH]c([C@@H]6CCCN6C(=O)[C@@H](NC(=O)OC)[C@@H](C)OC)nc5c4)cc3)ccc2[nH]1)[C@@H](C)OC` [Compound 170], the EC50 was no more than 5 nM.

Turning to `COC(=O)N[C@H](C(=O)N1C[C@@H](C)C[C@H]1c1nc2cc(-c3ccc(-c4ccc5[nH]c([C@@H]6C[C@H](C)CN6C(=O)[C@@H]6CCCN6C(=O)OC)nc5c4)cc3)ccc2[nH]1)C(C)C` [Compound 288], the EC50 is no more than 5 nM.

On to `COC(=O)NC(C(=O)N1CCC[C@H]1c1nc2ccc(CCCCc3ccc4[nH]c([C@@H]5CCCN5C(=O)[C@@H](NC(=O)OC)C(C)C)nc4c3)cc2[nH]1)C(C)C` (some centres unmarked) [Compound 68], for which the EC50 was no more than 5 nM.

As for `COC(=O)N[C@H](CN1CCC[C@H]1c1nc2cc(-c3ccc(-c4ccc5[nH]c([C@@H]6CCCN6C[C@@H](NC(=O)OC)C(C)C)nc5c4)cc3)ccc2[nH]1)C(C)C` [Compound 195], the EC50 is 5 to 5000 nM.

For `COC(=O)N[C@H](C(=O)N1[C@@H](C)CC[C@H]1c1nc2ccc(-c3ccc(-c4ccc5nc([C@@H]6CC[C@H](C)N6C(=O)[C@@H](NC(=O)OC)C(C)C)[nH]c5c4)c(F)c3)cc2[nH]1)C(C)C` [Compound 322], the EC50 is no more than 5 nM.

Take `COC(=O)N[C@H](C(=O)N1CCC[C@H]1c1nc2cc(-c3ccc(-c4ccc5nc([C@@H]6CCCN6C(=O)[C@@H](NC(=O)OC)[C@@H](C)OC)[nH]c5c4)c4ncoc34)ccc2[nH]1)[C@@H](C)OC` [Compound 188]: the EC50 was no more than 5 nM.

As to `O=C(N1CCC[C@H]1c1nc2cc(C#Cc3ccc4[nH]c([C@@H]5CCCN5C(=O)C5(c6ccccc6)CC5)nc4c3)ccc2[nH]1)C1(c2ccccc2)CC1` [Compound 61], the EC50 was no more than 5 nM.

Regarding `COC(=O)N[C@H](C(=O)N1CCC[C@H]1c1nc2cc(-c3ncc(-c4ccc5nc([C@@H]6CCCN6C(=O)[C@@H](NC(=O)OC)C(C)C)[nH]c5c4)c(OCc4ccccc4)n3)ccc2[nH]1)C(C)C` [Compound 19, ((S)-1-{(S)-2-[5-(4-Benzyloxy-5-{2-[(S)-1-((S)-2-methoxycarbonylamino-3-methyl-butyryl)-pyrrolidin-2-yl]-1H-benzoimidazol-5-yl}-pyrimidin-2-yl)-1H-benzoimidazol-2-yl]-pyrrolidine-1-carbonyl}-2-methyl-propyl)-carbamic acid methyl ester], the EC50 was no more than 5 nM.

Consider `COC(=O)N[C@H](C(=O)N1C[C@H](C)C[C@H]1c1nc2cc(-c3ccc(-c4ccc5[nH]c([C@@H]6C[C@@H](C)CN6C(=O)[C@@H](NC(=O)OC)C(C)C)nc5c4)c(C)c3)ccc2[nH]1)C(C)C` [Compound 261], for which the EC50 is no more than 5 nM.

Turning to `COC(=O)N[C@H](C(=O)N1CCC[C@H]1c1nc2cc(-c3ccc(-c4ccc5nc([C@@H]6CCCN6C(=O)[C@@H](NC(=O)OC)C(C)C)[nH]c5c4)cc3CO)ccc2[nH]1)C(C)C` [Compound 161], the EC50 is no more than 5 nM.

Regarding `COC(=O)N[C@H](C(=O)N1C[C@@H](C)C[C@H]1c1nc2ccc(-c3ccc(-c4ccc(-c5ccc6nc([C@@H]7C[C@H](C)CN7C(=O)[C@@H](NC(=O)OC)C(C)C)[nH]c6c5)cc4)cc3)cc2[nH]1)C(C)C` [Compound 263], the EC50 was no more than 5 nM.

Regarding `COC(=O)N[C@@H](C(=O)N1CCC[C@H]1c1nc2cc(C#Cc3ccc4[nH]c([C@@H]5CCCN5C(=O)[C@H](NC(=O)OC)c5ccccc5)nc4c3)ccc2[nH]1)c1ccccc1` [Compound 33, {(R)-2-[(S)-2-(5-{2-[(S)-1-((R)-2-Methoxycarbonylamino-2-phenyl-acetyl)-pyrrolidin-2-yl]-1H-benzoimidazol-5-ylethynyl}-1H-benzoimidazol-2-yl)-pyrrolidin-1-yl]-2-oxo-1-phenyl-ethyl}-carbamic acid methylester], the EC50 is no more than 5 nM.

In the case of `COC(=O)N[C@H](C(=O)N1CCC[C@H]1c1nc2cc(-c3ccc(-c4ccc5nc([C@@H]6CCCN6C(=O)[C@@H](NC(=O)OC)C(C)C)[nH]c5c4)c(OC)c3OC)ccc2[nH]1)C(C)C` [Compound 166], the EC50 is no more than 5 nM.

For `COC(=O)N[C@H](C(=O)N1CCC[C@H]1c1nc2cc(C#Cc3ccc4[nH]c([C@@H]5CCCN5C(=O)[C@H](NC(=O)OC)C(C)C)nc4c3)ccc2[nH]1)C(C)C` [Compound 62], the EC50 was no more than 5 nM.

As for `COC(=O)N[C@H](C(=O)N1[C@H](C)CC[C@H]1c1nc2cc(-c3ccc(-c4ccc5[nH]c([C@@H]6CC[C@@H](C)N6C(=O)[C@@H](NC(=O)OC)C(C)C)nc5c4)cc3)ccc2[nH]1)C(C)C` [Compound 310], the EC50 was no more than 5 nM.

On to `Cn1c([C@@H]2CCCN2C(=O)OC(C)(C)C)nc2ccc(-c3ccc(-c4ccc5nc([C@@H]6CCCN6C(=O)OC(C)(C)C)n(C)c5c4)cc3)cc21` [Compound 257], for which the EC50 lay in the range of 5 to 5000 nM.

In the case of `CC(C)C[C@@H](C(=O)N1CCC[C@H]1c1nc2cc(C#Cc3ccc4[nH]c([C@@H]5CCCN5C(=O)[C@H](CC(C)C)N5CCCC5=O)nc4c3)ccc2[nH]1)N1CCCC1=O` [Compound 84], the EC50 was no more than 5 nM.
